According to ChEMBL document CHEMBL4665826, “Design, synthesis and biological evaluation of novel heptamethine cyanine dye-erlotinib conjugates as antitumor agents” (Bioorg Med Chem Lett, 2020):

Columns and labels:
MDA-MB-231 = test: Antiproliferative activity against human MDA-MB-231 cells assessed as reduction in cell growth by MTT assay; type: functional, cell-based
NCI-H460 = test: Antiproliferative activity against human NCI-H460 cells assessed as reduction in cell growth by MTT assay; type: functional, cell-based
A549 [1] = test: Antiproliferative activity against human A549 cells assessed as reduction in cell growth by MTT assay; type: functional, cell-based
[2] = molecular target: T1, Epidermal growth factor receptor (Homo sapiens, UniProt P00533); test: Inhibition of EGFR in human A549 cells measured after 30 hrs by ELISA; type: cell-based
NCI-H1299 = test: Antiproliferative activity against human NCI-H1299 cells assessed as reduction in cell growth by MTT assay; type: functional, cell-based
MCF-10A = test: Cytotoxicity against human MCF-10A cells assessed as reduction in cell growth by MTT assay; type: cell-based
A549 [3] = test: Potency index, ratio of erlotinib IC50 to test compound IC50 for antiproliferative activity against human A549 cells assessed as reduction in cell growth by MTT assay; type: functional
[4] = molecular target: T1, Epidermal growth factor receptor; test: Potency index, ratio of erlotinib IC50 to test compound IC50 for EGFR in human A549 cells measured after 30 hrs by ELISA; type: cell-based

T1 sequence (P00533 whole entry): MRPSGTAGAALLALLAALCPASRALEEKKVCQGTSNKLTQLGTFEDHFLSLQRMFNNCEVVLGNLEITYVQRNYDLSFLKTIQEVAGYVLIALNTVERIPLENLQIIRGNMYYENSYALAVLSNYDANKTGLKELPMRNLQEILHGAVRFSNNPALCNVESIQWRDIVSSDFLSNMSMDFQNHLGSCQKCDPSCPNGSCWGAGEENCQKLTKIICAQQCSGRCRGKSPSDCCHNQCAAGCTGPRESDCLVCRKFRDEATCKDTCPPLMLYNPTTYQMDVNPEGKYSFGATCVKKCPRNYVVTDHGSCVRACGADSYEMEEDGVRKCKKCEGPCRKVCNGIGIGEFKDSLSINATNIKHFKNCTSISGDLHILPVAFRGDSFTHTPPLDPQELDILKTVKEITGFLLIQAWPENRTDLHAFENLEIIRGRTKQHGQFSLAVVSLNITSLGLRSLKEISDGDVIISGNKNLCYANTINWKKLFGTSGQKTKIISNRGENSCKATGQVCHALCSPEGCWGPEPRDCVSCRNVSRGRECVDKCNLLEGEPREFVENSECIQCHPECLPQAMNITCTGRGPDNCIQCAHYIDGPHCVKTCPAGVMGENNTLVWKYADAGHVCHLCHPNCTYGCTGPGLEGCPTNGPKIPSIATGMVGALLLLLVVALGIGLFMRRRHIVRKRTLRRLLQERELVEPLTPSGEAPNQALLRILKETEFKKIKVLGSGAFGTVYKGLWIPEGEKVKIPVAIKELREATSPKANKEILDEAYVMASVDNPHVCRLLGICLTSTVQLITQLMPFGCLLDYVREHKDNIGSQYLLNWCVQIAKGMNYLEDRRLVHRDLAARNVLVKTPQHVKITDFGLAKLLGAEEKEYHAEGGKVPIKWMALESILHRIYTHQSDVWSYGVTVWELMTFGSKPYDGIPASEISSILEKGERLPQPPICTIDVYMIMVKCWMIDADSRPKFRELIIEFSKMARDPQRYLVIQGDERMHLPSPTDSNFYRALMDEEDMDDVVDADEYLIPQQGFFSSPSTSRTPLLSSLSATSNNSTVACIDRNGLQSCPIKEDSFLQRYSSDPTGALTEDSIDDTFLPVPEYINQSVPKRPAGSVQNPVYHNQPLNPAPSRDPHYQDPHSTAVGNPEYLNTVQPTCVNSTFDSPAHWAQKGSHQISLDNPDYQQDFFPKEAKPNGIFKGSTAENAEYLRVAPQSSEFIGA

IC50 (MDA-MB-231) [nM] | IC50 (NCI-H460) [nM] | IC50 (A549 [1]) [nM] | IC50 [2] [nM] | IC50 (NCI-H1299) [nM] | Ratio IC50 [4] | SMILES | IC50 (MCF-10A) [nM] | Ratio IC50 (A549 [3])
356 | 813 | 230 | 205 | 541 | – | C#Cc1cccc(Nc2ncnc3cc(OCCOC)c(OCCOC(=O)CCCCC[N+]4=C(/C=C/C=C/C=C/C=C5/N(CCCC)c6ccccc6C5(C)C)C(C)(C)c5cc(C(F)(F)F)ccc54)cc23)c1 | – | –
< 125 | 570 | 631 | – | 2000 | – | C#Cc1cccc(Nc2ncnc3cc(OCCOC)c(OCCOC(=O)CCCCC[N+]4=C(/C=C/C=C/C=C/C=C5/N(CCCC)c6ccccc6C5(C)C)C(C)(C)c5ccccc54)cc23)c1 | 33200 | –
306 | 549 | 388 | – | 378 | – | C#Cc1cccc(Nc2ncnc3cc(OCCOC)c(OCCOC(=O)CCCCC[N+]4=C(/C=C/C=C/C=C/C=C5/N(CCCC)c6ccc(OC)cc6C5(C)C)C(C)(C)c5ccccc54)cc23)c1 | – | –
1620 | 7250 | 1130 | – | 5140 | – | C#Cc1cccc(Nc2ncnc3cc(OCCOC)c(OCCOC(=O)CCCCC[N+]4=C(/C=C/C=C/C=C/C=C5/N(CCCCCC(=O)O)c6ccccc6C5(C)C)C(C)(C)c5ccccc54)cc23)c1 | – | –
531 | 827 | 678 | – | 1350 | – | C#Cc1cccc(Nc2ncnc3cc(OCCOC)c(OCCOC(=O)CCCCC[N+]4=C(/C=C/C=C/C=C/C=C5/N(CCCC)c6ccc(OC)cc6C5(C)C)C(C)(C)c5cc(C)ccc54)cc23)c1 | – | –
< 125 | 217 | 455 | – | 110 | – | C#Cc1cccc(Nc2ncnc3cc(OCCOC)c(OCCOC(=O)CCCCC[N+]4=C(/C=C/C=C/C=C/C=C5/N(CCCC)c6ccc(OC)cc6C5(C)C)C(C)(C)c5cc(OC)ccc54)cc23)c1 | – | –
< 125 | 2470 | 3940 | – | 680 | – | C#Cc1cccc(Nc2ncnc3cc(OCCOC)c(OCCOC(=O)CCCCC[N+]4=C(/C=C/C=C/C=C/C=C5/N(CCCC)c6ccccc6C5(C)C)C(C)(C)c5cc(OC)ccc54)cc23)c1 | – | –
< 25 | < 1 | < 1 | – | 5 | – | CC(=O)O[C@H]1C(=O)[C@@]2(C)[C@H]([C@H](OC(=O)c3ccccc3)[C@]3(O)C[C@H](OC(=O)[C@H](O)[C@@H](NC(=O)c4ccccc4)c4ccccc4)C(C)=C1C3(C)C)[C@]1(OC(C)=O)CO[C@@H]1C[C@@H]2O [PACLITAXEL] | – | –
313 | 2120 | 2070 | – | 1740 | – | C#Cc1cccc(Nc2ncnc3cc(OCCOC)c(OCCOC(=O)CCCCC[N+]4=C(/C=C/C=C/C=C/C=C5/N(CCCC)c6ccccc6C5(C)C)C(C)(C)c5cc(C)ccc54)cc23)c1 | – | –
833 | 855 | 2080 | – | 246 | – | C#Cc1cccc(Nc2ncnc3cc(OCCOC)c(OCCOC(=O)CCCCC[N+]4=C(/C=C/C=C/C=C/C=C5/N(CCCC)c6ccc(OC)cc6C5(C)C)C(C)(C)c5cc(Br)ccc54)cc23)c1 | – | –
6210 | 5650 | 2100 | – | 4150 | – | C#Cc1cccc(Nc2ncnc3cc(OCCOC)c(OCCOC(=O)CCCCC[N+]4=C(/C=C/C=C/C=C/C=C5/N(CCCCCC(=O)O)c6ccc(C)cc6C5(C)C)C(C)(C)c5cc(C)ccc54)cc23)c1 | – | –
< 125 | 655 | 579 | – | 693 | – | C#Cc1cccc(Nc2ncnc3cc(OCCOC)c(OCCOC(=O)CCCCC[N+]4=C(/C=C/C=C/C=C/C=C5/N(CCCC)c6ccccc6C5(C)C)C(C)(C)c5cc(Br)ccc54)cc23)c1 | – | –
4230 | 2700 | 1960 | – | 2210 | – | C#Cc1cccc(Nc2ncnc3cc(OCCOC)c(OCCOC(=O)CCCCC[N+]4=C(/C=C/C5=C(Cl)C(=C/C=C6/N(CCCCCC(=O)O)c7ccc(OC)cc7C6(C)C)/CCC5)C(C)(C)c5cc(OC)ccc54)cc23)c1 | – | –
609 | 13700 | 7330 | – | 17600 | – | C#Cc1cccc(Nc2ncnc3cc(OCCOC)c(OCCOC(=O)CCCCC[N+]4=C(/C=C/C5=C(Cl)C(=C/C=C6/N(CCCCCC(=O)O)c7ccc(Br)cc7C6(C)C)/CCC5)C(C)(C)c5cc(Br)ccc54)cc23)c1 | – | –
4310 | 15200 | 9040 | – | 6960 | – | C#Cc1cccc(Nc2ncnc3cc(OCCOC)c(OCCOC(=O)CCCCC[N+]4=C(/C=C/C5=C(Cl)C(=C/C=C6/N(CCCCCC(=O)O)c7ccccc7C6(C)C)/CCC5)C(C)(C)c5ccccc54)cc23)c1 | – | –
3300 | 5120 | 2590 | – | 14900 | – | C#Cc1cccc(Nc2ncnc3cc(OCCOC)c(OCCOC(=O)CCCCC[N+]4=C(/C=C/C=C/C=C/C=C5/N(CCCCCC(=O)O)c6ccc(OC)cc6C5(C)C)C(C)(C)c5cc(OC)ccc54)cc23)c1 | – | –
3360 | 816 | 2380 | – | 1550 | – | C#Cc1cccc(Nc2ncnc3cc(OCCOC)c(OCCOC(=O)CCCCC[N+]4=C(/C=C/C5=C(Cl)C(=C/C=C6/N(CCCCCC(=O)O)c7ccc(C)cc7C6(C)C)/CCC5)C(C)(C)c5cc(C)ccc54)cc23)c1 | – | –
311 | 301 | 177 | 124 | 79 | 14 | C#Cc1cccc(Nc2ncnc3cc(OCCOC)c(OCCOC(=O)CCCCC[N+]4=C(/C=C/C=C/C=C/C=C5/N(CCCC)c6ccc(OC)cc6C5(C)C)C(C)(C)c5cc(C(F)(F)F)ccc54)cc23)c1.[Br-] | 38600 | 14
